Experimental data as given in patent US5808139A (Ligand Pharmaceuticals Incorporated, priority 1994, dated 1998).

How the values were obtained:
[1] = system: endometrium of the uterus; assay: Decidualization assay in pseudopregnant mice, oil-induced uterine weight gain; assay type: in vivo; details: 0.1 mg
Experimental: A successful pregnancy requires not only the effective collision and fusion of egg and spermatozoon, but also the provision of a receptive and supportive uterus. The preparation of the endometrium of the uterus for implantation (i.e. decidualization) starts well before the blastocyst arrives in the uterus.
Psuedopregnant mice (i.e. mated with vasectomized males) were used to establish the assay system. […] At 16 hours of Day 4, a small volume of sesame oil (10 μl) was introduced to the lumen of the right uterine horn to serve as a decidual stimulus. The left horn was left undisturbed to serve as an internal control. Autopsies were performed on Day 7 to assess uterine wet weight gains in the stimulated versus non-stimulated uterine horns.
Each of these compounds was intraluminally administered in an appropriate dosage on Day 4 along with the sesame oil administration.

[2] = system: glucocorticoid, mineralocorticoid, androgen, estrogen, and retinoic acid receptors; orphan receptors; assay: Cross-reactivity with other known intracellular receptor classes; assay type: cell-based
Experimental: Compound SO-9 was also tested with orphan receptors (which are receptors whose natural ligand is unknown).
The 3R and 3S diastereomeric acetates of cyclocymopol monomethyl ether were also individually tested for cross reactivity with the other known intracellular receptor classes. […] No antagonist activity was detected with either compound.

[3] = system: progesterone receptor (T47D cells); assay: Antagonist assay in T47D (human breast cancer) cells (Tables 1 and 2); assay type: cell-based

## CC#C[C@]1(O)CC[C@H]2[C@@H]3CCC4=CC(=O)CCC4=C3[C@@H](c3ccc(N(C)C)cc3)C[C@@]21C [RU-486, reference compound]
[1]
  Blocking of decidualization weight gain (in words): completely blocked this decidualization weight gain
[1]; intraluminal, autopsy Day 7, oil alone control 334.7 +/- 41.0
  Net Uterine Weight Gain: 9.53 ± 3.51 mg

## C=C1CC[C@@H](Br)C(C)(C)[C@@H]1Cc1cc(OC)c(Br)cc1O [SO-53, (3R)-cyclocymopol monomethyl ether]
[2]
  Cross-reactivity with other intracellular receptors: not to cross-react with any of the other receptors
[3]; antagonist activity, relative to RU-486
  Efficacy (% maximal response relative to RU-486), T47D cells: 85%
[3]; concentration required to reduce the maximal response by 50%, read-out: Potency (IC50), T47D cells
  IC50: 385 nM
